Literature values in patent US4448730A, “Hydroxybenzohydroxamic acids, benzamides and esters and related compounds as ribonucleotide reductase inhibitors” (priority 1982, dated 1984).

Assays:
[1] = Biochemical Pharmacology 1971; cited from earlier work
[2] = system: L1210 leukemia; settings: National Cancer Institute; cited from earlier work
[3] = system: RNA and protein synthesis in Ehrlich ascites tumor cells; settings: Gale and Hynes 1968; cited from earlier work
[4] = system: DNA synthesis in Ehrlich ascites tumor cells; settings: Gale and Hynes 1968; in vitro; cited from earlier work
[5] = system: DNA, RNA and protein synthesis in cells; settings: cited from earlier work

## O=C(NO)c1ccc(O)cc1 [4-hydroxybenzoylhydroxamic acid]
[1]
  antimitogenic activity (in words): most active compounds tested
[2]
  antitumor activity in vivo against L1210 leukemia (in words): significant antitumor activity in vivo

## O=C(NO)c1ccccc1 [Benzohydroxamic acid]
[3]
  inhibition of RNA synthesis (in words): found to inhibit RNA synthesis

## O=C(NO)c1ccccc1O [salicylhydroxamic acid]
[4]
  inhibition of / selectivity against DNA synthesis (in words): selective inhibition of DNA synthesis
[5]; Gale 1966
  inhibition of DNA synthesis (in words): selective inhibition of DNA synthesis
[5]; cells preincubated for up to two hours
  depression of RNA and protein synthesis (in words): only a slight depression of RNA and protein synthesis
